This note sets out measurements from article PMC3237616 (Molecular Biology of the Cell, 2011).

This assay relates to PIK (PI4K; phosphatidylinositol 4-kinase). In words: radiometric PtdInsP formation from […]-ATP, Lineweaver-Burk. It counts as biochemical, Mus musculus. As to conditions: co-substrate 32P-ATP; 25 °C; 10 min; cell homogenate; without added c-Fos.

What is called Km is the concentration of substrate that gives half-maximal velocity. For the substance PtdIns, the Km turned out to be 254 µM.
